Measured values published in US8173693B2, “Benzenesulfonamide derivatives and pharmaceutical composition thereof” (Purzer Pharmaceutical Co., Ltd., priority 2010, dated 2012).

Key:
[1] = tested on: HUVECs (human umbilical vein endothelial cells); assay: In vitro tube formation assay (capillary formation, VEGF-induced); assay type: cell-based
Protocol: At day 1, HUVECs (human umbilical vein endothelial cells) cocultured with human fibroblasts were incubated in optimized medium and maintained in a humidified chamber at 37° C. containing 5% CO2. […] The cells were stimulated with VEGF (25 ng/mL) without or with GM119 (0.1, 1 or 10 μM). The media were replaced at days 3, 6, and 8. At day 11, the tube-like structures of the umbilical vein endothelial cells were observed by an anti-human CD31 antibody (Kurabo, Tokyo, Japan), and the area of the tube-like structures was analyzed.

[2] = tested on: Human colorectal adenocarcinoma HT-29 cells; assay: SRB assay; assay type: cell-based; details: 48 hr

**Q.** Which “inhibition activity compared with suramin” value ([1]; 10 μM GM119 vs 10 μM suramin) does the source give for `COc1ccc(S(=O)(=O)Nc2cccc3c2[nH]c2c(C)ccc(C)c23)cc1` [Compound 6c, N-(5,8-Dimethyl-9H-carbazol-1-yl)-4-methoxybenzenesulfonamide] here?
**A.** Its value is “almost equivalent to that of suramin”.

**Q.** And the “inhibition of formation of tube-like structures induced by VEGF” value ([1]; VEGF 25 ng/mL, GM119 0.1, 1 or 10 μM, day 11)?
**A.** The value was “can inhibit the formation of the tube-like structures”.

**Q.** What about the IC50 [2] of the same compound?
**A.** Its IC50 is 9 µM.
